≈ marks a conversion by molar mass, not a printed value. Non-standard residues stand in square brackets, D forms with d. Residues, ends and D or L forms follow the SMILES beside them. Gly(N-2-aminoethyl) = NCCNCC(=O)O; Nspe = C[C@H](NCC(=O)O)c1ccccc1; Nphe = O=C(O)CNCc1ccccc1; Nlys = NCCCCNCC(=O)O Where only a bound is given, the exact number is not on record here.

A short description of data set [1]: Average hydrophobicity by analytical reverse-phase HPLC retention. Format: physicochemical. To be noted: for RP-HPLC Retention (% MeCN): Supplement table 4 (chemical and physical data for peptoid library), % MeCN at elution in RP-HPLC; for RP-HPLC Retention: Table S3, representative analytical RP-HPLC traces, SB-Analytical ODH-S column 100 x 1.6 mm, 3.5 µm, 0-100% solvent B over 30 min at 220 nm, A = 95% H2O, 0.05% TFA, B = 95% MeCN, 0.03% TFA. On the procedure: (§1) To examine the average hydrophobicity of the peptoids, the retention time for from reverse‐phase HPLC was determined on a C18 column using acetonitrile and water, with 0.1% TFA (see Figure 3A). To find log D values, partitioning experiments were carried out, as illustrated by Figure 2. A peptoid solution (between 10 and 100 µM) in PBS was added to an equal volume of octanol and the system allowed to equilibrate under gentle agitation for ∼150 h (as 48 h was not found to be sufficient for the system to reach equilibrium). At this point it is assumed that the peptoid has partitioned between these two phases, such as to minimise its free energy.
Preparative RP‐HPLC was performed with a semi‐preparative Perkin Elmer Series 200 lc pump fitted with a 785A UV/Vis detector using a SB‐Analytical ODH‐S optimal column (250 mm × 10 mm, 5 µm); flow rate 2 mL min^−1; λ = 250 nm, typical linear gradient elution 0–50% of solvent B over 60 min (A = 0.1% TFA in 95% H2O and 5% MeCN, B = 0.1% TFA in 5% H2O and 95% MeCN). Analytical RP‐HPLC was performed with a Perkin Elmer Series 200 LC pump fitted with a Series 200 UV/Vis detector using a SB‐Analytical ODH‐S optimal column (100 mm × 1.6 mm, 3.5 µm); flow rate 1 mL min^−1; λ = 220 nm, linear gradient elution 0–100% of solvent B over 30 min (A = 0.05% TFA, 95% H2O, 5% MeCN, B = 0.03% TFA, 5% H2O, 95% MeCN).
Preparative RP-HPLC was performed with a semi-preparative Perkin Elmer Series 200 lc pump fitted with a 785A UV/Vis detector using a SB-Analytical ODH-S optimal column (250 × 10 mm, 5 µm); flow rate 2 ml min^−1; λ = 250 nm, typical linear gradient elution 0-50% of solvent B over 60 min (A = 0.1% TFA in 95% H2O and 5% MeCN, B = 0.1% TFA in 5% H2O and 95% MeCN). Analytical RP-HPLC was performed with a Perkin Elmer Series 200 LC pump fitted with a Series 200 UV/Vis detector using a SB-Analytical ODH-S optimal column (100 × 1.6 mm, 3.5 µm); flow rate 1 ml min^−1; λ = 220 nm, linear gradient elution 0-100% of solvent B over 30 min (A = 0.05% TFA, 95% H2O, 5% MeCN, B = 0.03% TFA, 5% H2O, 95% MeCN).
Table S3. Data from analytical RP-HPLC for representative compounds of this peptoid library. Analytical HPLC gradient: 0 – 100% solvent B over 30 min at 220 nm (where solvent A = 95% H2O, 5% MeCN, 0.05 % TFA; solvent B = 95% MeCN, 5% H2O, 0.03% TFA).

The nature of data set [2]: log D by partitioning experiment in octanol and PBS. In kind it is physicochemical. Conditions: pH 7.4. On the procedure:
as §1
A combination of UV spectrometry and dynamic light scattering were used to determine that no aggregation was taking place in either phase (see Supporting Information). The peptoid concentrations of both phases were then determined using UV–Vis spectroscopy and the logarithm of the ratio of […] (log D) was calculated (Figure 3B). […]
Partition experiments were carried out by putting 450 µL of octanol in contact with 450 µL of PBS, which contained between […] of peptoid. Each peptoid was measured in triplicate. […] The concentration of peptoid remaining in the PBS and the octanol was measured individually using the phenylalanine peak as before. […]

A further data set deals with S. aureus. Format: cell-based. Conditions: 16 h. On the procedure:
(§2) Bacterial cultures were prepared by streaking the bacterial strain from a 4°C- or frozen stock culture to single colonies onto agar plates (containing the appropriate antibiotic for strains carrying antibiotic resistance plasmids) with an inoculation loop, followed by overnight incubation at 37 °C.
(§3) Primary overnight (o/n) cultures were prepared by inoculating a single colony from a streak plate into 5 mL of LB broth in a screw-capped culture tube, that was placed on a tube rotator at 37 °C (or 30 °C for sensitive strains) for overnight incubation. Before the usage of stock cultures the strains genotype were checked. Primary stocks were stored at 4°C for up to 6 weeks and always replaced from fresh colonies.
(§4) Fresh cultures used for experiments contained 0.1-0.5 mL o/n culture diluted into 8 mL of fresh medium in a standard test tube. Placed in a shaking water bath or on a tube rotator the bacteria were grown at the required temperature to the required cell density. Frozen stock cultures used for long term storage that can remain viable for 10 years were prepared by mixing 2.5 mL fresh o/n culture with 1.5 mL sterile 80% glycerol in a 5 mL sterile blood tube and stored at -20 °C.
(§5) MIC values were attained according to the previously described protocol4 and were conducted in 96-well plates (Costar, Fisher Scientific). Using the pre-prepared cultures, an innoculum density of 0.07 at 650 nm was set by comparing the absorbance with 0.5 MacFarland standard (240 μM BaCl2 in 0.18 M H2SO4). The innoculum was then diluted down ten-fold with Iso-sensitest broth (Oxoid, ThermoScientific) before use. Peptoids were initially dissolved in DMSO (5 mM) and then diluted further with Iso-sensitest broth to achieve a concentration range of 4 – 200 µM using 1 : 2 serial dilutions. 50 μl of innoculum and 50 μL of peptoid solution were added to each test well (final concentration range of 2 – 100 µM). Positive control containing only innoculum and Iso-sensitest broth; negative control containing inoculum and serial dilutions of ampicillin (from 250 microgram/mL to 2 microgram per mL); DMSO control containing innoculum and serial dilutions of DMSO; and Iso-sensitest broth were used as a sterile control. […] Quantitative data was attained from absorbance values using a microplate reader.

The subject of the next data set is E. coli. Format: cell-based. To be noted: 16 h. On the procedure: as §2, §3, §4, §5

Regarding `C[C@@H](c1ccccc1)N(CC(N)=O)C(=O)CN(C(=O)CN(CCCCN)C(=O)CN(C(=O)CN(C(=O)CN(CCCCN)C(=O)CN(C(=O)CN(C(=O)CNCCCCN)[C@@H](C)c1ccccc1)[C@@H](C)c1ccccc1)[C@@H](C)c1ccccc1)[C@@H](C)c1ccccc1)[C@@H](C)c1ccccc1` [Peptoid 5] (H-[Nlys][Nspe][Nspe][Nlys][Nspe][Nspe][Nlys][Nspe][Nspe]-NH2), the “RP-HPLC Retention (% MeCN)” value in data set [1] was 37 % MeCN. The “RP-HPLC Retention” value in data set [1] (5% MeCN, 5% H2O) worked out at 15.3 min.

With `C[C@@H](c1ccccc1)N(CC(N)=O)C(=O)CN(C(=O)CN(CCN)C(=O)CN(C(=O)CN(C(=O)CN(CCN)C(=O)CN(C(=O)CN(C(=O)CNCCN)[C@@H](C)c1ccccc1)[C@@H](C)c1ccccc1)[C@@H](C)c1ccccc1)[C@@H](C)c1ccccc1)[C@@H](C)c1ccccc1` [Peptoid 11] (H-[Gly(N-2-aminoethyl)][Nspe][Nspe][Gly(N-2-aminoethyl)][Nspe][Nspe][Gly(N-2-aminoethyl)][Nspe][Nspe]-NH2), the “log D” value in data set [2] is recorded as “negative”. The “RP-HPLC Retention (% MeCN)” value in data set [1] is 39 % MeCN. On to `NCCNCC(=O)N(CC(=O)N(CC(=O)N(CCN)CC(=O)N(CC(=O)N(CC(=O)N(CCN)CC(=O)N(CC(=O)N(CC(N)=O)Cc1ccccc1)Cc1ccccc1)Cc1ccccc1)Cc1ccccc1)Cc1ccccc1)Cc1ccccc1` [Peptoid 8] (H-[Gly(N-2-aminoethyl)][Nphe][Nphe][Gly(N-2-aminoethyl)][Nphe][Nphe][Gly(N-2-aminoethyl)][Nphe][Nphe]-NH2), for which the “RP-HPLC Retention (% MeCN)” value in data set [1] is recorded as 34 % MeCN.

On to `C[C@@H](c1ccccc1)N(CC(N)=O)C(=O)CN(C(=O)CN(CCCCN)C(=O)CN(C(=O)CN(C(=O)CNCCCCN)[C@@H](C)c1ccccc1)[C@@H](C)c1ccccc1)[C@@H](C)c1ccccc1` [Peptoid 6] (H-[Nlys][Nspe][Nspe][Nlys][Nspe][Nspe]-NH2), for which the “RP-HPLC Retention (% MeCN)” value in data set [1] was 33 % MeCN. Moreover, in data set [1] (5% MeCN, 5% H2O), the “RP-HPLC Retention” value is on record as 14.4 min.

Turning to `NCCCCNCC(=O)N(CC(=O)N(CC(=O)N(CCCCN)CC(=O)N(CC(=O)N(CC(=O)N(CCCCN)CC(=O)N(CC(=O)N(CC(N)=O)Cc1ccccc1)Cc1ccccc1)Cc1ccccc1)Cc1ccccc1)Cc1ccccc1)Cc1ccccc1` [Peptoid 2], in data set [1], the “RP-HPLC Retention (% MeCN)” value is reported as 34 % MeCN.

In the case of `NCCCCNCC(=O)N(CC(=O)N(CC(=O)N(CCCCN)CC(=O)N(CC(=O)N(CC(=O)N(CCCCN)CC(=O)N(CC(=O)N(CC(=O)N(CCCCN)CC(=O)N(CC(=O)N(CC(N)=O)Cc1ccccc1)Cc1ccccc1)Cc1ccccc1)Cc1ccccc1)Cc1ccccc1)Cc1ccccc1)Cc1ccccc1)Cc1ccccc1` [Peptoid 1] (H-[Nlys][Nphe][Nphe][Nlys][Nphe][Nphe][Nlys][Nphe][Nphe][Nlys][Nphe][Nphe]-NH2), the “RP-HPLC Retention (% MeCN)” value in data set [1] is 37 % MeCN. As for `NCCCCNCC(=O)N(CC(=O)N(CC(=O)N(CCCCN)CC(=O)N(CC(=O)N(CC(N)=O)Cc1ccccc1)Cc1ccccc1)Cc1ccccc1)Cc1ccccc1` [Peptoid 3] (H-[Nlys][Nphe][Nphe][Nlys][Nphe][Nphe]-NH2), the “RP-HPLC Retention (% MeCN)” value in data set [1] was determined as 31 % MeCN. For the compound `C[C@@H](c1ccccc1)N(CC(N)=O)C(=O)CN(C(=O)CN(CCN)C(=O)CN(C(=O)CN(C(=O)CN(CCN)C(=O)CN(C(=O)CN(C(=O)CN(CCN)C(=O)CN(C(=O)CN(C(=O)CNCCN)[C@@H](C)c1ccccc1)[C@@H](C)c1ccccc1)[C@@H](C)c1ccccc1)[C@@H](C)c1ccccc1)[C@@H](C)c1ccccc1)[C@@H](C)c1ccccc1)[C@@H](C)c1ccccc1` [Peptoid 10] (H-[Gly(N-2-aminoethyl)][Nspe][Nspe][Gly(N-2-aminoethyl)][Nspe][Nspe][Gly(N-2-aminoethyl)][Nspe][Nspe][Gly(N-2-aminoethyl)][Nspe][Nspe]-NH2), the “MIC S. aureus” value against S. aureus was 2 µM (≈ 3.41 µg/mL). Also, the “MIC E. coli” value with E. coli is greater than 100 µM. Also, the “RP-HPLC Retention (% MeCN)” value in data set [1] came to 41 % MeCN. The “HPLC RT” value in data set [1] (Table 2 / main text, chromatographic, RP-HPLC C18 retention time as measure of average hydrophobicity, gradient 0-100% solvent B over 30 min, 220 nm, 1 mL/min, A = 0.05% TFA, 95% H2O, 5% MeCN, B = 0.03% TFA, 5% H2O, 95% MeCN, around pH 2.2) is given as 16.7 min.

As for `C[C@@H](c1ccccc1)N(CC(N)=O)C(=O)CN(C(=O)CN(CCN)C(=O)CN(C(=O)CN(C(=O)CNCCN)[C@@H](C)c1ccccc1)[C@@H](C)c1ccccc1)[C@@H](C)c1ccccc1` [Peptoid 12], in data set [1], the “RP-HPLC Retention (% MeCN)” value worked out at 33 % MeCN.

As to `NCCNCC(=O)N(CC(=O)N(CC(=O)N(CCN)CC(=O)N(CC(=O)N(CC(=O)N(CCN)CC(=O)N(CC(=O)N(CC(=O)N(CCN)CC(=O)N(CC(=O)N(CC(N)=O)Cc1ccccc1)Cc1ccccc1)Cc1ccccc1)Cc1ccccc1)Cc1ccccc1)Cc1ccccc1)Cc1ccccc1)Cc1ccccc1` [Peptoid 7] (H-[Gly(N-2-aminoethyl)][Nphe][Nphe][Gly(N-2-aminoethyl)][Nphe][Nphe][Gly(N-2-aminoethyl)][Nphe][Nphe][Gly(N-2-aminoethyl)][Nphe][Nphe]-NH2), in data set [1], the “RP-HPLC Retention (% MeCN)” value is on record as 37 % MeCN. In addition, the “RP-HPLC Retention” value in data set [1] (5% MeCN, 5% H2O) turned out to be 15.2 min. Take `NCCNCC(=O)N(CC(=O)N(CC(=O)N(CCN)CC(=O)N(CC(=O)N(CC(N)=O)Cc1ccccc1)Cc1ccccc1)Cc1ccccc1)Cc1ccccc1` [Peptoid 9] (H-[Gly(N-2-aminoethyl)][Nphe][Nphe][Gly(N-2-aminoethyl)][Nphe][Nphe]-NH2): the “RP-HPLC Retention (% MeCN)” value in data set [1] amounted to 30 % MeCN.

The values are drawn from paper PMC5519928, “Log D versus HPLC derived hydrophobicity: The development of predictive tools to aid in the rational design of bioactive peptoids” (Biopolymers, 2017).
